Drawing on ChEMBL document CHEMBL1833893, “Synthesis and anticonvulsant activity of new 1-[2-oxo-2-(4-phenylpiperazin-1-yl)ethyl]pyrrolidine-2,5-diones” (Bioorg Med Chem Lett, 2011), this text covers Activity, minimal effective dose and MTC for 17 molecules.

Structures are written as SMILES. Activity calls are given as the source filed them. The calls are words filed in the database; no cut-off is given here.

Data set [1] has as its system Rattus norvegicus. Nature of the data set: Anticonvulsant activity in Sprague-Dawley rat assessed as protection against maximal electroshock-induced seizures at 30 mg/kg, po after 4 hrs. Type of data set: functional. For orientation: Protection in the maximal electroshock model is a classic sign of anticonvulsant action.
The subject of data set [2] is Mus musculus. Nature of the data set: Anticonvulsant activity in albino CF1 mouse assessed as protection against subcutaneous pentylenetetrazole-induced seizures at 300 mg/kg, ip after 4 hrs. Type of data set: functional, organism-based. More on the design: dose 300 mg/kg.
For data set [3], the system named is Mus musculus. Kind of data set: Neurotoxicity in albino CF1 mouse assessed as motor impairment at 300 mg/kg, ip after 4 hrs by rotarod test. Further details: dose 300 mg/kg, route intraperitoneal. Type of data set: toxicity, organism-based. The conditions noted are these: in vivo. For orientation: Falling from the rotarod earlier than controls is read as motor impairment.

In data set [4] the test system is Mus musculus. Nature of the data set: Anticonvulsant activity in ip dosed albino CF1 mouse assessed as protection against maximal electroshock-induced seizures after 0.5 hrs. Type of data set: functional. The note with it: read-out: MED.
The subject of data set [5] is Mus musculus. Nature of the data set: Anticonvulsant activity in ip dosed albino CF1 mouse assessed as protection against maximal electroshock-induced seizures after 4 hrs. The note with it: read-out: MED. Type of data set: functional.
Data set [6] has as its system Mus musculus. Kind of data set: Neurotoxicity in ip dosed albino CF1 mouse assessed as minimum dose required to cause motor impairment after 0.5 hrs by rotarod test. Type of data set: toxicity, organism-based. The note with it: in vivo.
For data set [7], the system named is Rattus norvegicus. Kind of data set: Anticonvulsant activity in Sprague-Dawley rat assessed as protection against maximal electroshock-induced seizures at 30 mg/kg, po after 0.25 hrs. The data set is classed as functional.
For data set [8], the system named is Rattus norvegicus. Kind of data set: Anticonvulsant activity in Sprague-Dawley rat assessed as protection against maximal electroshock-induced seizures at 30 mg/kg, po after 0.5 hrs. The data set is classed as functional.
Data set [9] concerns Mus musculus. Nature of the data set: Anticonvulsant activity in albino CF1 mouse assessed as protection against electrically-induced seizure at 100 mg/kg, ip after 1 hr by 6Hz psychomotor seizure test. Type of data set: functional.
Data set [10] deals with Mus musculus. Kind of data set: Anticonvulsant activity in albino CF1 mouse assessed as protection against electrically-induced seizure at 100 mg/kg, ip after 0.5 hrs by 6Hz psychomotor seizure test. Type of data set: functional. The note with it: route intraperitoneal.
Data set [11] relates to Rattus norvegicus. Nature of the data set: Anticonvulsant activity in Sprague-Dawley rat assessed as protection against maximal electroshock-induced seizures at 30 mg/kg, po after 2 hrs. The data set is classed as functional.
In data set [12] the test system is Mus musculus. Nature of the data set: Anticonvulsant activity in ip dosed albino CF1 mouse assessed as protection against subcutaneous pentylenetetrazole-induced seizures after 0.5 hrs. Type of data set: functional. The note with it: albino CF1, 0.5 h, read-out: MED.
Data set [13] concerns Mus musculus. Nature of the data set: Anticonvulsant activity in albino CF1 mouse assessed as protection against electrically-induced seizure at 100 mg/kg, ip after 0.25 hrs by 6Hz psychomotor seizure test. Type of data set: functional. The conditions noted are these: route intraperitoneal.
The test system of data set [14] is Rattus norvegicus. Nature of the data set: Anticonvulsant activity in Sprague-Dawley rat assessed as protection against maximal electroshock-induced seizures at 30 mg/kg, po after 1 hr. Type of data set: functional.
In data set [15] the test system is Mus musculus. Kind of data set: Anticonvulsant activity in albino CF1 mouse assessed as protection against electrically-induced seizure at 100 mg/kg, ip after 2 hrs by 6Hz psychomotor seizure test. Type of data set: functional.
For data set [16], the system named is Mus musculus. Nature of the data set: Anticonvulsant activity in albino CF1 mouse assessed as protection against electrically-induced seizure at 100 mg/kg, ip after 4 hrs by 6Hz psychomotor seizure test. Type of data set: functional.
The test system of data set [17] is Mus musculus. Kind of data set: Anticonvulsant activity in albino CF1 mouse assessed as protection against maximal electroshock-induced seizures at 300 mg/kg, ip after 4 hrs. The data set is classed as functional, organism-based. More on the design: dose 300 mg/kg.
Data set [18] relates to Mus musculus. Nature of the data set: Anticonvulsant activity in albino CF1 mouse assessed as protection against subcutaneous pentylenetetrazole-induced seizures at 300 mg/kg, ip after 0.5 hrs. The data set is classed as functional, organism-based. More on the design: dose 300 mg/kg.
Data set [19] relates to Mus musculus. Nature of the data set: Neurotoxicity in albino CF1 mouse assessed as motor impairment at 300 mg/kg, ip after 0.5 hrs by rotarod test. The data set is classed as toxicity, organism-based. Further details: dose 300 mg/kg, route intraperitoneal. The note with it: in vivo.
In data set [20] the test system is Mus musculus. Nature of the data set: Neurotoxicity in ip dosed albino CF1 mouse assessed as minimum dose required to cause motor impairment after 4 hrs by rotarod test. Type of data set: toxicity, organism-based. The note with it: in vivo.

Turning to `CC1(C)CC(=O)N(CC(=O)N2CCN(c3ccc(F)cc3)CC2)C1=O`, the outcome in data set [1], in data set [2], in data set [7], in data set [8], in [11] and in [14] was inactive. The Activity entry is given as “Non-toxic” in [3], 75% in [9] (route intraperitoneal), 100% in data set [10] and 100% in [13]. Further, the minimal effective dose is 100 mg/kg in [4], 100 mg/kg in data set [5] and 300 mg/kg in [12]. Besides, the MTC in [6] was 300 mg/kg.

For `O=C(CN1C(=O)CCC1=O)N1CCN(c2ccccc2Cl)CC1`, the outcome in data set [1], in [2], in data set [15], in data set [16], in data set [7] and in [8] was inactive. Further, the result in data set [9], in data set [11], in [17] and in [14] was inactive. Further, the Activity result is “Non-toxic” in [3] and 75% in [13]. Moreover, the minimal effective dose is 100 mg/kg in data set [4] and 300 mg/kg in data set [12]. In data set [6], the MTC worked out at 300 mg/kg.

Take `CC1(C)CC(=O)N(CC(=O)N2CCN(c3ccccc3F)CC2)C1=O`: the result in data set [18], in data set [2] and in data set [17] was inactive. The Activity result in data set [3] and in [19] was “Non-toxic” in each case. Besides, the minimal effective dose in data set [4] was found to be 300 mg/kg.

With `CC1CC(=O)N(CC(=O)N2CCN(c3ccc(F)cc3)CC2)C1=O` (stereo not given), the result in [18], in [2] and in [16] was inactive. Further, the Activity result is “Non-toxic” in [3], “Non-toxic” in [19], 75% in data set [9] (route intraperitoneal) and 75% in [10]. Moreover, the figures for the minimal effective dose in data set [4] and in data set [5] were 300 mg/kg and 100 mg/kg, respectively.

Regarding `CC1(C)CC(=O)N(CC(=O)N2CCN(c3ccc(Cl)cc3)CC2)C1=O`, the Activity in data set [1] is recorded as 100%; in data set [3] it was “Non-toxic”; in data set [9] (route intraperitoneal) it was 100%; in data set [10], 100%; in [13], 100%. Also, the result in data set [2], in data set [7], in data set [8] and in [14] was inactive. The minimal effective dose is 100 mg/kg in data set [4], 100 mg/kg in [5] and 300 mg/kg in data set [12]. Also, in data set [6], the MTC worked out at 300 mg/kg.

On to `O=C(CN1C(=O)CCC1=O)N1CCN(c2ccc(F)cc2)CC1`, for which the result in [18] and in [2] was inactive. Further, the Activity result in [3] and in [19] was “Non-toxic” in each case. Moreover, the minimal effective dose in data set [4] and in [5] was 300 mg/kg each time.

Regarding `CC1CC(=O)N(CC(=O)N2CCN(c3ccc(Cl)cc3)CC2)C1=O` (stereo not given), the Activity is reported as 75% in data set [1]; 75% in data set [8]; “Non-toxic” in data set [19]; 75% in data set [9] (route intraperitoneal); 75% in data set [11]; 75% in data set [13]. The Activity in data set [14] is 75%. Moreover, the result in data set [18] and in [2] was inactive. Also, the MTC in [20] was determined as 300 mg/kg. For the same molecule, the minimal effective dose is 300 mg/kg in data set [4] and 100 mg/kg in data set [5].

With `O=C1NC(=O)C(c2ccccc2)(c2ccccc2)N1` [PHENYTOIN], the Activity in data set [1] worked out at 75%; in data set [8], 100%; in [11] it was 75%; in data set [14] it was 75%. Also, the outcome in data set [18] and in [2] was inactive. For the same molecule, the MTC in data set [20] and in data set [6] was 100 mg/kg in each case. Also, the minimal effective dose in [4] and in data set [5] was 30 mg/kg in each case.

As to `O=C(CN1C(=O)CCC1=O)N1CCN(c2ccccc2F)CC1`, in [2], the outcome was inactive. Further, the Activity entry in [3] is given as “Non-toxic”. Besides, the minimal effective dose in data set [4] and in [12] was 300 mg/kg each time. Further, the MTC in data set [6] worked out at 300 mg/kg.

For `CC1CC(=O)N(CC(=O)N2CCN(c3ccccc3F)CC2)C1=O` (stereo not given), the result in data set [18] and in [2] was inactive. In addition, the Activity entry in [3] was “Non-toxic”. In addition, the minimal effective dose in [4] and in data set [5] was 300 mg/kg in each case. For the same molecule, the MTC in data set [6] was determined as 300 mg/kg.

With `CC1CC(=O)N(CC(=O)N2CCN(c3ccccc3Cl)CC2)C1=O` (stereo not given), the result in data set [1], in [2], in data set [15], in data set [16], in [8] and in data set [11] was inactive. The outcome in [17] and in data set [14] was inactive. In addition, the Activity result in [3] is on record as “Non-toxic”; in data set [7] it was 75%; in data set [10], 100%; in [13], 100%. Besides, the minimal effective dose in data set [4] and in data set [12] was 300 mg/kg in each case. In addition, the MTC in data set [6] was 300 mg/kg.

With `O=C(CN1C(=O)CCC1=O)N1CCN(c2ccccc2)CC1`, the result in data set [18], in data set [2] and in data set [17] was inactive. Also, the Activity entry in data set [3] and in data set [19] was “Non-toxic” throughout. Moreover, the minimal effective dose in [4] turned out to be 300 mg/kg.

For the molecule `CCC1(CC)CC(=O)N(CC(=O)N2CCN(c3cccc(C(F)(F)F)c3)CC2)C1=O`, the result in [18] and in data set [2] was inactive. Also, the Activity entry in data set [3] and in data set [19] was “Non-toxic” in each case. The minimal effective dose in data set [4] and in [5] was 300 mg/kg in each case.

Consider `CCC1(CC)CC(=O)N(CC(=O)N2CCN(c3ccccc3Cl)CC2)C1=O`, for which the result in data set [18], in [2] and in data set [17] was inactive. Also, the Activity entry in [3] is recorded as “Non-toxic”. Further, the minimal effective dose in data set [4] was found to be 300 mg/kg. The MTC in data set [6] came to 300 mg/kg.

As for `CC1(C)CC(=O)N(CC(=O)N2CCN(c3ccccc3Cl)CC2)C1=O`, the result in data set [18], in [2] and in [17] was inactive. Moreover, the Activity entry in data set [3] and in [19] was “Non-toxic” throughout. Besides, the minimal effective dose in data set [4] was 300 mg/kg.

As to `CC1(C)CC(=O)N(CC(=O)N2CCN(c3cccc(C(F)(F)F)c3)CC2)C1=O`, the result in data set [1], in [18], in data set [2], in data set [8], in data set [11] and in data set [14] was inactive. Moreover, the Activity result in data set [3] was “Non-toxic”; in data set [19], “Non-toxic”; in data set [9] (route intraperitoneal), 75%; in [10], 75%. The minimal effective dose in data set [4] and in [5] was 100 mg/kg each time.

For `CC1CC(=O)N(CC(=O)N2CCN(c3cccc(C(F)(F)F)c3)CC2)C1=O` (stereo not given), the outcome in data set [2], in [16], in [7] and in data set [8] was inactive. The Activity in data set [15] (route intraperitoneal) stood at 75%; in [9] (route intraperitoneal) it was 100%; in data set [10], 100%; in data set [13] it was 100%. Besides, the MTC in data set [20] and in data set [6] was 300 mg/kg throughout. Further, the minimal effective dose in [4] was found to be 100 mg/kg; in [5] it was 100 mg/kg; in [12] it was 300 mg/kg.
